Laboratory results reported in publication PMC3226492, “Isomer Profiles of Perfluorochemicals in Matched Maternal, Cord, and House Dust Samples: Manufacturing Sources and Transplacental Transfer” (Environmental Health Perspectives, 2011).
Like-named read-outs stand apart in the source and are kept apart here.

Assays:
[1] = Total PFC concentrations in maternal and cord sera by HPLC-MS/MS; format: in vivo, human; conditions: for mean concentration in cord serum: cord serum at delivery
Procedure: Blood collection. Samples (n = 20) analyzed in this study are a subset of the Chemicals, Health and Pregnancy (CHirP) cohort recruited in 2007–2008 in Vancouver (BC, Canada) ([Webster et al. 2011]). All participants provided informed consent. Laboratory personnel collected blood samples from pregnant volunteers in Vancouver at 15 weeks of gestation, and samples of cord blood (n = 20) were collected at delivery. After serum separation, all samples were stored at –80°C. Ethical clearance was obtained from the research ethics boards of the University of British Columbia, the University of Alberta, Health Canada, and the three participating hospitals.
Serum preparation. The method of [Kuklenyik et al. (2004)] was adapted for the extraction of PFCs from serum using a Rapid Trace system (Caliper Life Sciences, Hopkinton, MA, USA). The solid-phase extraction cartridge (Oasis-HLB, Waters, Milford, MA, USA; 60 mg/3 mL) was conditioned with 2 mL methanol followed by 2 mL of 0.1 M formic acid. Serum was prepared for extraction by mixing 3 mL of 0.1 M formic acid with 1.0 mL serum. After the addition of mass-labeled internal standards (10 ng each), the mixture was vortexed and sonicated for 20 min. Prepared serum was added to the column and washed successively with 3 mL of 0.1 M formic acid, 6 mL of 50% 0.1 M formic acid/50% methanol, and 1 mL of 1% ammonium hydroxide. The cartridge was drained by vacuum, and PFCs were eluted with 1.0 mL of 1% ammonium hydroxide in acetonitrile. The eluate was concentrated to 100 μL followed by the addition of 200 μL of 90% 20 mM acetic acid in 10% methanol. Method blanks containing calf serum, a calf serum sample spiked at 0.5 ng/mL of each PFC, and a human serum sample spiked at 10 ng/mL were analyzed with the study samples.
Total PFC analysis. For total PFC concentrations, separation was by HPLC on a 150-mm Synergi Hydro-RP C-18 column (Phenomenex, Torrance, CA, USA). Gradient elution at 600 μL/min used A [20 mM ammonium acetate (pH 4) in water] and B (methanol) mobile phases. Initial conditions were 60% A for 1 min, ramped to 20% A by 3 min, a 5-min hold, an increase to 100% B by 8.5 min, and a hold until 14 min, at which time initial conditions were reestablished. MS/MS data were collected on an Applied Biosystems API 3000 mass spectrometer (Applied Biosystems, Carlsbad, CA, USA) using electrospray ionization in negative-ion mode [for mean recoveries of total PFCs in serum and dust, see Supplemental Material, Table 1 (http://dx.doi.org/10.1289/ehp.1003265)].

[2] = Transplacental transfer efficiency (TTE): cord serum at delivery divided by maternal serum concentration, present study; format: in vivo, human; conditions: for TTE calculated from cord:maternal serum concentrations, arithmetic mean / TTE calculated from cord:maternal serum concentrations, maximum / TTE calculated from cord:maternal serum concentrations, median / TTE calculated from cord:maternal serum concentrations, minimum: cord serum at delivery / maternal serum at 15 weeks of gestation; for Mean cord:maternal serum concentration: Present study
[3] = cited from earlier work
[4] = maternal serum, 15 weeks of gestation
[5] = Canada, 2004–2005, n 101, ref Monroy et al. 2008
[6] = Denmark, 1996–2002, n 50, maternal serum sampled in the first trimester, ref Fei et al. 2007
[7] = Denmark, 1996–2002, n 50, maternal serum sampled in the second trimester, ref Fei et al. 2007
[8] = Faroe Islands, 2000, n 12, ref Needham et al. 2011
[9] = Germany, 2003, n 11, ref Midasch et al. 2007
[10] = Germany, 2007–2009, n 27, ref Fromme et al. 2010
[11] = Korea, 2007, n 20, ref Kim et al. 2011
[12] = South Africa, 2005–2006, n 58, ref Hanssen et al. 2010
[13] = Canada, 2007, n 20, maternal serum sampled in the second trimester
[14] = TTE adjusted from 15 weeks to time of delivery (~ 40 weeks) using data from Monroy et al. (2008)

## O=C(O)C(F)(F)C(F)(F)C(F)(F)C(F)(F)C(F)(F)C(F)(F)C(F)(F)C(F)(F)F [Total PFNA, perfluorononanoate]
[1]
  mean concentration in cord serum: 0.4 ng/mL
[1]; [4]
  mean concentration in maternal serum: 0.9 ng/mL
[2]
  TTE calculated from cord:maternal serum concentrations, arithmetic mean: 0.41
  TTE calculated from cord:maternal serum concentrations, maximum: 0.78
  TTE calculated from cord:maternal serum concentrations, median: 0.38
  TTE calculated from cord:maternal serum concentrations, minimum: 0.13

## O=S(=O)(O)C(F)(C(F)(F)F)C(F)(F)C(F)(F)C(F)(F)C(F)(F)C(F)(F)C(F)(F)F (stereo not shown) [1m-PFOS]
[2]
  TTE calculated from cord:maternal serum concentrations, arithmetic mean: 0.87
  TTE calculated from cord:maternal serum concentrations, maximum: 1.24
  TTE calculated from cord:maternal serum concentrations, median: 0.88
  TTE calculated from cord:maternal serum concentrations, minimum: 0.36

## O=S(=O)(O)C(F)(F)C(F)(F)C(F)(F)C(F)(F)C(F)(F)C(F)(F)C(F)(F)C(F)(F)F [n-PFOS, linear perfluorooctane sulfonate]
[2]
  TTE calculated from cord:maternal serum concentrations, arithmetic mean: 0.33
  TTE calculated from cord:maternal serum concentrations, maximum: 0.58
  TTE calculated from cord:maternal serum concentrations, median: 0.30
  TTE calculated from cord:maternal serum concentrations, minimum: 0.10

## O=S(=O)(O)C(F)(F)C(F)(F)C(F)(F)C(F)(F)C(F)(F)C(F)(C(F)(F)F)C(F)(F)F [Iso- PFOS]
[2]
  TTE calculated from cord:maternal serum concentrations, arithmetic mean: 0.36
  TTE calculated from cord:maternal serum concentrations, maximum: 0.60
  TTE calculated from cord:maternal serum concentrations, median: 0.34
  TTE calculated from cord:maternal serum concentrations, minimum: 0.09

## O=C(O)C(F)(F)C(F)(F)C(F)(F)C(F)(F)C(F)(F)C(F)(F)C(F)(F)C(F)(F)C(F)(F)F [Total PFDA, perfluorodecanoate]
[1]
  mean concentration in cord serum: 0.1 ng/mL
[1]; [4]
  mean concentration in maternal serum: 0.4 ng/mL
[2]
  TTE calculated from cord:maternal serum concentrations, arithmetic mean: 0.34
  TTE calculated from cord:maternal serum concentrations, maximum: 1.10
  TTE calculated from cord:maternal serum concentrations, median: 0.23
  TTE calculated from cord:maternal serum concentrations, minimum: 0.00

## O=C(O)C(F)(F)C(F)(F)C(F)(F)C(F)(F)C(F)(F)C(F)(F)C(F)(F)F [n-PFOA]
[2]
  TTE calculated from cord:maternal serum concentrations, arithmetic mean: 0.62
  TTE calculated from cord:maternal serum concentrations, maximum: 1.00
  TTE calculated from cord:maternal serum concentrations, median: 0.61
  TTE calculated from cord:maternal serum concentrations, minimum: 0.26

## O=C(O)C(F)(F)C(F)(F)C(F)(F)C(F)(C(F)(F)F)C(F)(F)C(F)(F)F (stereo not shown) [5m-PFOA]
[2]
  TTE calculated from cord:maternal serum concentrations, arithmetic mean: 0.86
  TTE calculated from cord:maternal serum concentrations, maximum: 2.26
  TTE calculated from cord:maternal serum concentrations, median: 0.54
  TTE calculated from cord:maternal serum concentrations, minimum: 0.09
[2]; listed as 5m-PFOA
  TTE calculated from cord:maternal serum concentrations, maximum: > 1.0

## O=C(O)C(F)(F)C(F)(F)C(F)(F)C(F)(F)C(F)(C(F)(F)F)C(F)(F)F [Iso-PFOA]
[2]
  TTE calculated from cord:maternal serum concentrations, arithmetic mean: 0.84
  TTE calculated from cord:maternal serum concentrations, maximum: 2.56
  TTE calculated from cord:maternal serum concentrations, median: 0.67
  TTE calculated from cord:maternal serum concentrations, minimum: 0.16

## O=C(O)C(F)(F)C(F)(C(F)(F)F)C(F)(F)C(F)(F)C(F)(F)C(F)(F)F (stereo not shown) [3m-PFOA]
[2]
  TTE calculated from cord:maternal serum concentrations, arithmetic mean: 0.76
  TTE calculated from cord:maternal serum concentrations, median: 0.68
  TTE calculated from cord:maternal serum concentrations, minimum: 0.07

## O=S(=O)(O)C(F)(F)C(F)(F)C(F)(F)C(F)(F)C(F)(F)C(F)(F)F [Total PFHxS, perfluorohexane sulfonate]
[1]
  mean concentration in cord serum: 0.7 ng/mL
[1]; female, human, maternal serum, 15 weeks of gestation
  concentration at 15 weeks of gestation: 1.7 ng/mL
[2]
  TTE calculated from cord:maternal serum concentrations, arithmetic mean: 0.41
  TTE calculated from cord:maternal serum concentrations, maximum: 0.56
  TTE calculated from cord:maternal serum concentrations, median: 0.38
  TTE calculated from cord:maternal serum concentrations, minimum: 0.29

## O=C(O)C(F)(F)C(F)(F)C(F)(F)C(F)(F)C(F)(F)C(F)(F)C(F)(F)F [Total PFOA, perfluorooctanoate]
[3]; [5]
  Mean cord:maternal serum concentration: 0.81
[3]; [6]
  Mean cord:maternal serum concentration: 0.55
[3]; [7]
  Mean cord:maternal serum concentration: 0.68
[3]; [8]
  Mean cord:maternal serum concentration: 0.72
[3]; [9]
  Mean cord:maternal serum concentration: 1.26
[3]; [10]
  Mean cord:maternal serum concentration: 0.70
[3]; [11]
  Mean cord:maternal serum concentration: 0.69
[3]; [12]
  Mean cord:maternal serum concentration: 0.71
[1]
  mean concentration in cord serum: 1.1 ng/mL
[1]; [4]
  mean concentration in maternal serum: 1.8 ng/mL
[2]; [13]
  Mean cord:maternal serum concentration: 0.61
[2]; [14]
  Mean cord:maternal serum concentration: 0.71
[2]
  TTE calculated from cord:maternal serum concentrations, arithmetic mean: 0.61
  TTE calculated from cord:maternal serum concentrations, maximum: 0.96
  TTE calculated from cord:maternal serum concentrations, median: 0.63
  TTE calculated from cord:maternal serum concentrations, minimum: 0.32

## O=S(=O)(O)C(F)(F)C(F)(F)C(F)(C(F)(F)F)C(F)(F)C(F)(F)C(F)(F)C(F)(F)F (stereo not shown) [3m-PFOS]
[2]
  TTE calculated from cord:maternal serum concentrations, arithmetic mean: 0.67
  TTE calculated from cord:maternal serum concentrations, maximum: 1.12
  TTE calculated from cord:maternal serum concentrations, median: 0.68
  TTE calculated from cord:maternal serum concentrations, minimum: 0.21

## O=C(O)C(F)(F)C(F)(F)C(F)(F)C(C(F)(F)F)(C(F)(F)F)C(F)(F)F [tb-PFOA]
[2]
  TTE calculated from cord:maternal serum concentrations, arithmetic mean: 0.25
  TTE calculated from cord:maternal serum concentrations, maximum: 0.48
  TTE calculated from cord:maternal serum concentrations, median: 0.25
  TTE calculated from cord:maternal serum concentrations, minimum: 0.02

## O=S(=O)(O)C(F)(F)C(F)(F)C(F)(F)C(F)(F)C(F)(F)C(F)(F)C(F)(F)C(F)(F)F [Total PFOS, perfluorooctane sulfonate]
[3]; [5]
  Mean cord:maternal serum concentration: 0.45
[3]; [6]
  Mean cord:maternal serum concentration: 0.29
[3]; [7]
  Mean cord:maternal serum concentration: 0.34
[3]; [8]
  Mean cord:maternal serum concentration: 0.34
[3]; [9]
  Mean cord:maternal serum concentration: 0.60
[3]; [10]
  Mean cord:maternal serum concentration: 0.30
[3]; Japan, 2003, n 15, ref Inoue et al. 2004
  Mean cord:maternal serum concentration: 0.32
[3]; [11]
  Mean cord:maternal serum concentration: 0.36
[3]; [12]
  Mean cord:maternal serum concentration: 0.45
[1]
  mean concentration in cord serum: 1.8 ng/mL
[1]; [4]
  mean concentration in maternal serum: 5.5 ng/mL
[2]; [13]
  Mean cord:maternal serum concentration: 0.33
[2]; [14]
  Mean cord:maternal serum concentration: 0.36
[2]
  TTE calculated from cord:maternal serum concentrations, arithmetic mean: 0.33
  TTE calculated from cord:maternal serum concentrations, maximum: 0.53
  TTE calculated from cord:maternal serum concentrations, median: 0.31
  TTE calculated from cord:maternal serum concentrations, minimum: 0.20

## O=C(O)C(F)(F)C(F)(F)C(F)(C(F)(F)F)C(F)(F)C(F)(F)C(F)(F)F (stereo not shown) [4m-PFOA]
[2]
  TTE calculated from cord:maternal serum concentrations, arithmetic mean: 0.64
  TTE calculated from cord:maternal serum concentrations, maximum: 1.29
  TTE calculated from cord:maternal serum concentrations, median: 0.68
  TTE calculated from cord:maternal serum concentrations, minimum: 0.09
[2]; listed as 4m-PFOA
  TTE calculated from cord:maternal serum concentrations, maximum: > 1.0

## O=S(=O)(O)C(F)(F)C(F)(F)C(F)(F)C(F)(C(F)(F)F)C(F)(F)C(F)(F)C(F)(F)F (stereo not shown) [4m-PFOS]
[2]
  TTE calculated from cord:maternal serum concentrations, arithmetic mean: 0.55
  TTE calculated from cord:maternal serum concentrations, maximum: 0.85
  TTE calculated from cord:maternal serum concentrations, median: 0.52
  TTE calculated from cord:maternal serum concentrations, minimum: 0.20

## O=S(=O)(O)C(F)(F)C(F)(F)C(F)(F)C(F)(F)C(F)(C(F)(F)F)C(F)(F)C(F)(F)F (stereo not shown) [5m-PFOS]
[2]
  TTE calculated from cord:maternal serum concentrations, arithmetic mean: 0.53
  TTE calculated from cord:maternal serum concentrations, maximum: 0.93
  TTE calculated from cord:maternal serum concentrations, median: 0.52
  TTE calculated from cord:maternal serum concentrations, minimum: 0.25
